Test results as given in publication PMC6688371, “Effect of the inhaled PDE4 inhibitor CHF6001 on biomarkers of inflammation in COPD” (Respiratory Research, 2019).

Experiments:
[1] = tested on: markers of inflammation in sputum; assay: Markers of inflammation in induced sputum; type: in vivo, human; conditions: geometric mean (%CV); for α-2-macroglobulin in sputum, post-baseline: mean of Days 20, 26 and 32
Description: (§1) Induced sputum was collected pre-dose on Day 1 of each treatment period (for the first treatment period, the sample could be collected up to 10 days prior to Day 1), and 2 h post-dose on Days 20, 26 and 32 (see the Additional file 1 for further detail on sputum and blood analysis methods). Blood samples were taken pre-dose on Day 1, and pre-dose and at 30 min, and 1, 1.5, 2, 3, 4, 6, 8 and 12 h post-dose on Day 32. Other pre-dose assessments on Days 1 and 32 were spirometry (forced expiratory volume in 1 s [FEV1] and forced vital capacity [FVC]), forced oscillometry, and COPD Assessment Test (CAT), with Baseline Dyspnea Index recorded on Day 1 and Transition Dyspnea Index (TDI) on Day 32. Central and peripheral airways mechanics were assessed using forced oscillometry, with the following values determined: inspiratory and expiratory resistance (at 5 and 19 Hz), inspiratory and expiratory reactance, tidal expiratory flow limitation and the percentage of flow limited breaths.
A patient had to have a minimum of one acceptable sputum sample on Day 20, 26 or 32 to be included in the sputum biomarker evaluation for that treatment period, with the available cell count and biomarker data averaged for each patient. The mean change from baseline (pre-dose on Day 1 of each treatment period) was then compared between treatments using an analysis of covariance (ANCOVA) that included treatment, patient and period as fixed effects, and baseline values as covariate. The mean change from baseline to Day 32 for biomarkers in blood were analysed using the same model as for sputum data. All data were log-transformed before analysis, and the results are presented as ratio of geometric means.
Effect of CHF6001 on inflammatory biomarkers – Additional file 1 […]
Analysis of biomarkers and CHF6001 concentration in sputum
Sputum samples were collected by sputum induction, with patients breathing in nebuli sed hypertonic saline at increasing concentrations (3%, then 4% and finally 5%) while wearing a nose clip. Sputum plugs were isolated, processed by centrifugation and analysed to determine inflammatory cell counts (with total cell counts performed by each s ite’s local laboratory and differential counts at a central laboratory), as follows.
All solid or dense-looking material was collected from the clear salivary fluid into a stainless steel Petri dish lid. Sputum plugs were then gathered and condensed into one mass. After cleaning the Petri dish, cold Dulbecco's Phosphate -Buffered Saline equal to eight times the weight of the sputum plug was added, then dispersed , mixed and vortexed for 15 sec, before gently agitating on a rolling mixer or rocker for 15 min at room temperature. The resulting mixture was centrifuged at 790 g for 10 min at 4C. A volume of the supernatant equal to four times the weight of the sputum plug was removed and again centrifuged at 1500 g for 10 min at 4C. The clarified supernatant was divided into four equal aliquots, which were shipped in an upright position at –80C to a central laboratory for biomarker assessment. Levels of biomarkers were assessed as follows:
• α-2-macroglobulin: Meso Scale Diagnostics ELISA method .
• Interleukin (IL) 6 and 1β, C-X-C motif chemokine ligand 8 (CXCL8) and tumour necrosis factor (TNF) α: Meso Scale Diagnostics Pro-inflammatory v-PLEX Plus kit.
• Leukotriene B4: High pressure liquid chromatography with tandem mass spectroscopy (HPLC-MS/MS).
• Myeloperoxidase (MPO): Meso Scale Diagnostics MPO v-PLEX kit.
• Neutrophil elastase (NE): Luminex MAGPIX System Human Sepsis Magnetic Bead […]
• Monocyte chemotactic protein (MCP) 1 (also known as C-C motif chemokine ligand [CCL] 2) and macrophage inflammatory protein (MIP) 1β (also known as CCL4):
Meso Scale Diagnostics Chemokine v-PLEX Plus kit.
• Matrix metalloproteinase (MMP) 9: Sandwich Immunoassay, using PheraSTAR Plate […]
• Total protein: Pierce BCA protein assay.
Validation procedures followed those outlined in the “Guideline on Bioanalytical Method […]

patients with COPD = assay: Spirometry and symptoms (FEV1, FVC, CAT, TDI); type: in vivo, human; conditions: for TDI, adjusted mean difference vs placebo (95% CI): Day 32; for CAT, adjusted mean difference vs placebo (95% CI) / Pre-dose FEV1, adjusted mean difference vs placebo (95% CI) / Pre-dose FVC, adjusted mean difference vs placebo (95% CI): change from baseline to Day 32
Description: as §1
The mean changes from baseline to Day 32 for lung function, CAT and TDI were analysed using similar methodology to sputum biomarkers, but were not log-transformed. […] The sputum concentration of CHF6001 was also evaluated at 2 h post-dose, using the mean of all values measured on Days 20, 26 and 32. Pharmacokinetic variables were summarised using geometric means and coefficients of variation, except for Tmax,ss, which is presented as median (range).

[2] = Stability of CHF6001 in human sputum samples (bioanalytical validation); type: in vitro ADME
Description: Effect of CHF6001 on inflammatory biomarkers – Additional file 1
Approximately 80 to 100 cells were to be counted per square , with the number of live leukocytes, dead leukocytes and squamous cells counted.
To determine differential cell counts, the sputum cell suspension was adjusted with Dulbecco's Phosphate -Buffered Saline to give 0.5x10^6 cells/mL. A total of 75 µL was used to prepare a cytoslide, which was then centrifuged at 450 rpm for 6 min and allowed to air dry for a minimum of 30 min before being fixed with methanol for 10 min. Four slides were prepared for each sample.
Only one of the sputum samples induced at 2 h post-dose on Days 20, 26 or 32 was used to evaluate CHF6001 concentration, with the evaluation performed only if a minimum of 300 mg of residual sputum remained. Approximately 30 mg of sputum plug was transferred to a polypropylene cryotube, and was shipped in an upright position at –80C to a central laboratory for analysis. The concentration of CHF6001 was evaluated using a LC-MS/MS method following solid phase extraction. Validation procedures were the same as those listed above for biomarkers. […]
over the calibration range of 30 to 20,000 ng/mL. The precision and accuracy of the method […]
30 ng/mL and within 15% at all other concentrations. No significant matrix effects were […]
temperature (nominally +22C), after storage for 93 days in a freezer set at –80C and after four freeze-thaw cycles at nominally –80C / +22C. The method was considered to be suitable for measuring concentrations of CHF6001 in human sputum samples from […]
Analysis of biomarkers and CHF6001 concentration in blood
The levels of inflammatory biomarkers were evaluated from blood collected at 2 h post-dose

CS(=O)(=O)Nc1ccc(C(=O)O[C@@H](Cc2c(Cl)c[n+]([O-])cc2Cl)c2ccc(OC(F)F)c(OCC3CC3)c2)cc1OCC1CC1 [CHF6001]
C-X-C motif chemokine ligand 8 in sputum, post-baseline ([1]; 800 µg BID): 1828.97 (140.2) pg/mL | Interleukin 1β in sputum, post-baseline ([1]; 800 µg BID): 13.6127 (599.5) pg/mL | Interleukin 6 in sputum, post-baseline ([1]; 800 µg BID): 48.7856 (108.7) pg/mL | Leukotriene B4 in sputum, post-baseline ([1]; 800 µg BID): 872.363 (135.0) pg/mL | Macrophage inflammatory protein 1β in sputum, post-baseline ([1]; 800 µg BID): 68.2963 (153.5) pg/mL | Matrix metalloproteinase 9 in sputum, post-baseline ([1]; 800 µg BID): 175.9824 (292.9) ng/mL | Monocyte chemotactic protein-1 in sputum, post-baseline ([1]; 800 µg BID): 136.8746 (89.9) pg/mL | Myeloperoxidase in sputum, post-baseline ([1]; 800 µg BID): 476,409.369 (720.8) pg/mL | Neutrophil elastase in sputum, post-baseline ([1]; 800 µg BID): 82,640.61 (281.5) pg/mL | Total protein in sputum, post-baseline ([1]; 800 µg BID): 320.329 (100.5) µg/mL | Tumour necrosis factor α in sputum, post-baseline ([1]; 800 µg BID): 1.595 (265.2) pg/mL | α-2-macroglobulin in sputum, post-baseline ([1]; 800 µg BID): 247.464 (233.4) ng/mL | C-X-C motif chemokine ligand 8 in sputum, post-baseline ([1]; 1600 µg BID): 2104.09 (127.3) pg/mL | Interleukin 1β in sputum, post-baseline ([1]; 1600 µg BID): 13.2876 (377.1) pg/mL | Interleukin 6 in sputum, post-baseline ([1]; 1600 µg BID): 55.8291 (107.5) pg/mL | Leukotriene B4 in sputum, post-baseline ([1]; 1600 µg BID): 678.965 (274.2) pg/mL | Macrophage inflammatory protein 1β in sputum, post-baseline ([1]; 1600 µg BID): 60.8680 (139.7) pg/mL | Matrix metalloproteinase 9 in sputum, post-baseline ([1]; 1600 µg BID): 176.3384 (249.4) ng/mL | Monocyte chemotactic protein-1 in sputum, post-baseline ([1]; 1600 µg BID): 152.5465 (108.2) pg/mL | Myeloperoxidase in sputum, post-baseline ([1]; 1600 µg BID): 494,342.192 (536.6) pg/mL | Neutrophil elastase in sputum, post-baseline ([1]; 1600 µg BID): 84,470.09 (238.7) pg/mL | Total protein in sputum, post-baseline ([1]; 1600 µg BID): 327.176 (102.5) µg/mL | Tumour necrosis factor α in sputum, post-baseline ([1]; 1600 µg BID): 1.687 (342.0) pg/mL | α-2-macroglobulin in sputum, post-baseline ([1]; 1600 µg BID): 247.877 (270.6) ng/mL | TDI, adjusted mean difference vs placebo (95% CI) (patients with COPD; 800 µg BID): 0.3 (–0.1 to 0.8) | CAT, adjusted mean difference vs placebo (95% CI) (patients with COPD; 800 µg BID): –0.3 (–1.4 to 0.8) | Pre-dose FEV1, adjusted mean difference vs placebo (95% CI) (patients with COPD; 800 µg BID): 13 (–26 to 52) mL | Pre-dose FVC, adjusted mean difference vs placebo (95% CI) (patients with COPD; 800 µg BID): 25 (–58 to 109) mL | TDI, adjusted mean difference vs placebo (95% CI) (patients with COPD; 1600 µg BID): –0.1 (–0.6 to 0.4) | CAT, adjusted mean difference vs placebo (95% CI) (patients with COPD; 1600 µg BID): –0.3 (–1.3 to 0.8) | Pre-dose FEV1, adjusted mean difference vs placebo (95% CI) (patients with COPD; 1600 µg BID): –35 (–74 to 4) mL | Pre-dose FVC, adjusted mean difference vs placebo (95% CI) (patients with COPD; 1600 µg BID): –26 (–109 to 58) mL | Lung function (FEV1 and FVC) or symptoms vs placebo (patients with COPD; either dose (800 or 1600 μg BID)): Neither CHF6001 dose differed from placebo | Storage time found stable in sputum ([2]; freezer set at –80C): 93 days | Freeze-thaw cycles found stable in sputum ([2]; nominally –80C / +22C): four | Time found stable in sputum ([2]; sample processing temperature (nominally +22C)): up to 24 h
